Assay results reported in ChEMBL document CHEMBL4033773, “Improving Metabolic Stability with Deuterium: The Discovery of BMT-052, a Pan-genotypic HCV NS5B Polymerase Inhibitor” (ACS Med Chem Lett, 2017).

Assays:
[1] = Distribution constant, log D of compound at pH 6.5; type: physicochemical; details: buffer
[2] = tested on: Hepatitis C virus; experiment: Antiviral activity against HCV genotype 1a infected in human HuH7 cells assessed as reduction in viral RNA replication after 3 days in presence of human serum by Dual-Glo luciferase reporter gene assay; type: functional, cell-based, Hepacivirus hominis; details: subtype 1a, Huh-7, 72 h
[3] = tested on: Hepatitis C virus; experiment: Antiviral activity against HCV genotype 1a infected in human HuH7 cells assessed as reduction in viral RNA replication after 3 days by Dual-Glo luciferase reporter gene assay; type: functional, cell-based, Hepacivirus hominis; details: subtype 1a, Huh-7, 72 h
[4] = biological target: Cytochrome P450 3A4 (Homo sapiens, UniProt P08684); experiment: Competitive inhibition of CYP3A4 in human liver microsomes in presence of NADPH by LC-MS/MS analysis; type: ADME
[5] = Clearance in rat at 2 mg/kg, iv or 6 mg/kg, po; type: ADME, organism-based; details: in vivo
[6] = Clearance in dog at 1 mg/kg, iv or 3 mg/kg, po; type: ADME, organism-based, Canis lupus familiaris; details: in vivo
[7] = Clearance in cynomolgus monkey at 1 mg/kg, iv or 3 mg/kg, po; type: ADME, organism-based, Macaca fascicularis; details: in vivo
[8] = Volume of distribution at steady state in rat at 2 mg/kg, iv or 6 mg/kg, po; type: ADME, organism-based; details: in vivo, read-out: Vdss
[9] = Volume of distribution at steady state in dog at 1 mg/kg, iv or 3 mg/kg, po; type: ADME, organism-based, Canis lupus familiaris; details: in vivo, read-out: Vdss
[10] = Volume of distribution at steady state in cynomolgus monkey at 1 mg/kg, iv or 3 mg/kg, po; type: ADME, organism-based, Macaca fascicularis; details: in vivo, read-out: Vdss
[11] = AUC in rat at 6 mg/kg, po; type: ADME, organism-based; details: in vivo
[12] = AUC in dog at 3 mg/kg, po; type: ADME, organism-based, Canis lupus familiaris; details: in vivo
[13] = AUC in cynomolgus monkey at 3 mg/kg, po; type: ADME, organism-based, Macaca fascicularis; details: in vivo
[14] = Oral bioavailability in rat at 6 mg/kg; type: ADME, organism-based; details: in vivo
[15] = Oral bioavailability in dog at 6 mg/kg; type: ADME, organism-based, Canis lupus familiaris; details: in vivo
[16] = Oral bioavailability in cynomolgus monkey at […]; type: ADME, organism-based, Macaca fascicularis; details: in vivo

Cytochrome P450 3A4, sequence (P08684 whole entry): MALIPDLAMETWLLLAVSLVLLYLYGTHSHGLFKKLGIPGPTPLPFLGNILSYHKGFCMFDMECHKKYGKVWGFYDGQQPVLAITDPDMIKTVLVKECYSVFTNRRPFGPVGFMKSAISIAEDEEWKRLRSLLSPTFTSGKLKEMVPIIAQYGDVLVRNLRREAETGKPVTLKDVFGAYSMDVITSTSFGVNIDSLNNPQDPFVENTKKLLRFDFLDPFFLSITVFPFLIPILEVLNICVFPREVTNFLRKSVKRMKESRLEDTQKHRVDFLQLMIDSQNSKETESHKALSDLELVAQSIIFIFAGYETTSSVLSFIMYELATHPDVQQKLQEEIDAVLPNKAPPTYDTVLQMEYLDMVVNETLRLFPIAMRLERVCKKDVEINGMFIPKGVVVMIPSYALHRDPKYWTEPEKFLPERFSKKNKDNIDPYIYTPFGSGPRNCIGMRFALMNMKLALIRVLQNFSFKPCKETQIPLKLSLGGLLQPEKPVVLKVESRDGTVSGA

With `CNC(=O)c1c(-c2ccc(F)cc2)oc2nc(CCC(F)(F)F)c(-c3cccc(C(=O)NC(C)(C)c4ncon4)c3)cc12` the logD [1] was 4.43.

For `[2H]C([2H])([2H])C(NC(=O)c1cccc(-c2cc3c(C(=O)NC)c(-c4ccc(F)cc4)oc3nc2CCC(F)(F)F)c1)(c1ncon1)C([2H])([2H])[2H]`, the EC50 [2] was 146 nM and the EC50 [3] was 13 nM.

Work on `CNC(=O)c1c(-c2ccc(F)cc2)oc2nc(CCC(F)(F)F)c(-c3cc(C(=O)NC(C)(C)c4ncon4)c(=O)n(C)c3)cc12` yielded an IC50 [4] of 440 nM.

`[2H]C([2H])([2H])Oc1ncc(-c2cc3c(C(=O)NC)c(-c4ccc(F)cc4)oc3nc2CCC(F)(F)F)cc1C(=O)NC(c1ncon1)(C([2H])([2H])[2H])C([2H])([2H])[2H]` gave a clearance [5] of 1.6 mL/min/kg, a clearance [6] of 1 mL/min/kg and a clearance [7] of 4.7 mL/min/kg. The Vd [8] was 11 L/kg, the Vd [9] was 2.1 L/kg and the Vd [10] was 2.3 L/kg. The AUC [11] was 95 µM·h, the AUC [12] was 125 µM·h and the AUC [13] was 16 µM·h. For the same compound, the bioavailability [14] was 100%, the bioavailability [15] was 90% and the bioavailability [16] was 85%. The logD [1] was 3.73.
